Experimental data from US10508120B2, “TYK2 inhibitors and uses thereof” (Nimbus Lakshmi, Inc., priority 2017, dated 2019).

How the values were obtained:
[1] = target: human TYK2 (JH2domain-pseudokinase) (Homo sapiens (Human), UniProt P29597); experiment: TYK2 JH2 Domain Binding Assay (KINOMEscan)
Method in brief: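 Kds, run in duplicate, came from Hill fits (slope fixed at −1) of an 11-point 3-fold dilution series starting at 30,000 nM. Bead-retained TYK2 JH2 (aa G556–D888)–NFkB DBD fusion, DNA-tagged and expressed in HEK293 cells, was read by qPCR after 1 h room-temperature binding in 0.9% DMSO.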

Tyk2 kinase domain (DH1) = Tyk2 kinase domain (DH1) (Homo sapiens (Human), UniProt P29597); experiment: Tyk2 Radioactive Kinase Assay; assay type: biochemical; conditions: compound at 10 μM; ATP 10 μM; read-out: Tyk2 JH1% Inhibition @ 10 μM
Method in brief: (§1)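 Compounds were tested at a single concentration of 10 μM in a radiometric kinase format against each isolated kinase domain. Activity is reported as percent inhibition at that concentration.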

JAK2 kinase domain (JH1) = JAK2 kinase domain (JH1) (Homo sapiens (Human), UniProt O60674); experiment: JAK2 Radioactive Kinase Assay; assay type: biochemical; conditions: compound at 10 μM; ATP 10 μM; read-out: JAK2 JH1% Inhibition @ 10 μM
Method in brief: as §1

[2] = target: Tyk2/JAK2 (heterodimeric complex) (Homo sapiens (Human), UniProt P29597); experiment: IL-12 Induced pSTAT4 in Human PBMC; assay type: cell-based; conditions: 1.7 ng/mL IL-12
Source text: The IL-12 Induced pSTAT4 assay evaluates the inhibition of IL-12 induced STAT4 phophorylation mediated by Tyk2/JAK2 (heterodimeric complex).

[3] = target: JAK2/JAK2 homdimeric complex (Homo sapiens (Human), UniProt O60674); experiment: GM-CSF Induced pSTAT5 in Human PBMC; assay type: cell-based; conditions: GM-CSF 5 ng/mL for 20 minutes, pSTAT5 by MSD, read-out: PBMC_GMCSF_pSTAT5 IC50
JAK2/JAK2 homdimeric complex, sequence (O60674 whole entry): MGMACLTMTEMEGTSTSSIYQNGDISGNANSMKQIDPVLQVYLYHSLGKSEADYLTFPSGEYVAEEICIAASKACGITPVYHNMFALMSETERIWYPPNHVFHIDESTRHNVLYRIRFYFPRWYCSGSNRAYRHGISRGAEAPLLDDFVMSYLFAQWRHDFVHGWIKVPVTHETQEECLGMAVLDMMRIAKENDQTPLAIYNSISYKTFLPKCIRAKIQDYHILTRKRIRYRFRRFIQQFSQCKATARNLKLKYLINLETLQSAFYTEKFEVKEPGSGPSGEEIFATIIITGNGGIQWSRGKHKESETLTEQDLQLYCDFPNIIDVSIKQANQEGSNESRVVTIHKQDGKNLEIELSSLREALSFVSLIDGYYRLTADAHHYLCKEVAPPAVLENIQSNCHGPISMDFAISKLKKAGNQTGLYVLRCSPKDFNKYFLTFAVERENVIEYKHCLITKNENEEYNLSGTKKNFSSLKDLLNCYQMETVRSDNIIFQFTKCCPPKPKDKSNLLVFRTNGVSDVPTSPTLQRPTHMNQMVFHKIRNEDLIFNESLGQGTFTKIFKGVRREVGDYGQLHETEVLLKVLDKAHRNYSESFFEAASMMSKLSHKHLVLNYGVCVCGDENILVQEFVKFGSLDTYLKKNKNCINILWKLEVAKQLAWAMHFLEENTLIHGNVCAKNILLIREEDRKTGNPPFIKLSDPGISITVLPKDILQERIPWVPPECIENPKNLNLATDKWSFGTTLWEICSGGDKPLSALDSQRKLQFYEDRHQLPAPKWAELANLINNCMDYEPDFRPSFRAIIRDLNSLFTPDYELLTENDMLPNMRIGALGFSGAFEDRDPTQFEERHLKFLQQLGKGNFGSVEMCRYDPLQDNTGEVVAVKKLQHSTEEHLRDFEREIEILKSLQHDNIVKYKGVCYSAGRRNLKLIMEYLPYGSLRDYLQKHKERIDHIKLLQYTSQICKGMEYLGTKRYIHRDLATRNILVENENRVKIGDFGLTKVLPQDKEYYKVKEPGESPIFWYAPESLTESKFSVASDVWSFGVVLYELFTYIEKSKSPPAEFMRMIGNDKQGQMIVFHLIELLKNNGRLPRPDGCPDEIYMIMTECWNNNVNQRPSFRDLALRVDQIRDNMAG
JAK2/JAK2 homdimeric complex, sequence (P32927 17-897 partner): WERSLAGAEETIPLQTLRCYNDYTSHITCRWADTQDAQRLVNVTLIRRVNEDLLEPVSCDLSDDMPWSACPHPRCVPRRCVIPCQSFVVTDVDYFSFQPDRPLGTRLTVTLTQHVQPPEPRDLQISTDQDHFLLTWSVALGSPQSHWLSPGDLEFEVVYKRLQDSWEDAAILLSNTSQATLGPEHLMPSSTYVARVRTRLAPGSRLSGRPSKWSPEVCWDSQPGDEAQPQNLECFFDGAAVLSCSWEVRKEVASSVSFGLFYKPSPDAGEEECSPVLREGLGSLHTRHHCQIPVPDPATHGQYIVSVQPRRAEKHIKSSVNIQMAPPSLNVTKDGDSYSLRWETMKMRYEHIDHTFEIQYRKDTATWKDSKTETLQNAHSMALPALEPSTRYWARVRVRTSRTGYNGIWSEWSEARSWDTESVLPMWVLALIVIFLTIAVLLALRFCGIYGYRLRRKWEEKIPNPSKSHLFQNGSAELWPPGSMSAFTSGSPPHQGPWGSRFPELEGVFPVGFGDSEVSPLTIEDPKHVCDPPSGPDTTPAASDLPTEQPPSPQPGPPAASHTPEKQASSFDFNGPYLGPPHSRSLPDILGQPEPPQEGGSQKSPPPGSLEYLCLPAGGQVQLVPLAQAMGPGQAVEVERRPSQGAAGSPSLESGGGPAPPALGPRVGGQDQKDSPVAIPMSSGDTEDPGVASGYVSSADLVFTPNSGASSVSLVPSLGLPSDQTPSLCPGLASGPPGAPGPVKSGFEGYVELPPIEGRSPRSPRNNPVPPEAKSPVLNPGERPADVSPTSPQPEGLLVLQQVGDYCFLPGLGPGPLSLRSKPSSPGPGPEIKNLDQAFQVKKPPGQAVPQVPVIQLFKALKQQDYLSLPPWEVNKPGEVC

JAK2 kinase domain (JH1), sequence (O60674 849-1124): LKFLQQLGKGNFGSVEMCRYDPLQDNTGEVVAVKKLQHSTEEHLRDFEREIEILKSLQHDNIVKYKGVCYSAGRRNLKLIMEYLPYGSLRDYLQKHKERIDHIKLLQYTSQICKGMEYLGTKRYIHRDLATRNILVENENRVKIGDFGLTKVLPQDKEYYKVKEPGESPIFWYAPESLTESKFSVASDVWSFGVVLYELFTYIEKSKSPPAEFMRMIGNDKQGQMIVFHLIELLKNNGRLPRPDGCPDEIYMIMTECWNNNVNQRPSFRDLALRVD
Tyk2/JAK2 (heterodimeric complex), sequence (P29597 whole entry, other chains not shown): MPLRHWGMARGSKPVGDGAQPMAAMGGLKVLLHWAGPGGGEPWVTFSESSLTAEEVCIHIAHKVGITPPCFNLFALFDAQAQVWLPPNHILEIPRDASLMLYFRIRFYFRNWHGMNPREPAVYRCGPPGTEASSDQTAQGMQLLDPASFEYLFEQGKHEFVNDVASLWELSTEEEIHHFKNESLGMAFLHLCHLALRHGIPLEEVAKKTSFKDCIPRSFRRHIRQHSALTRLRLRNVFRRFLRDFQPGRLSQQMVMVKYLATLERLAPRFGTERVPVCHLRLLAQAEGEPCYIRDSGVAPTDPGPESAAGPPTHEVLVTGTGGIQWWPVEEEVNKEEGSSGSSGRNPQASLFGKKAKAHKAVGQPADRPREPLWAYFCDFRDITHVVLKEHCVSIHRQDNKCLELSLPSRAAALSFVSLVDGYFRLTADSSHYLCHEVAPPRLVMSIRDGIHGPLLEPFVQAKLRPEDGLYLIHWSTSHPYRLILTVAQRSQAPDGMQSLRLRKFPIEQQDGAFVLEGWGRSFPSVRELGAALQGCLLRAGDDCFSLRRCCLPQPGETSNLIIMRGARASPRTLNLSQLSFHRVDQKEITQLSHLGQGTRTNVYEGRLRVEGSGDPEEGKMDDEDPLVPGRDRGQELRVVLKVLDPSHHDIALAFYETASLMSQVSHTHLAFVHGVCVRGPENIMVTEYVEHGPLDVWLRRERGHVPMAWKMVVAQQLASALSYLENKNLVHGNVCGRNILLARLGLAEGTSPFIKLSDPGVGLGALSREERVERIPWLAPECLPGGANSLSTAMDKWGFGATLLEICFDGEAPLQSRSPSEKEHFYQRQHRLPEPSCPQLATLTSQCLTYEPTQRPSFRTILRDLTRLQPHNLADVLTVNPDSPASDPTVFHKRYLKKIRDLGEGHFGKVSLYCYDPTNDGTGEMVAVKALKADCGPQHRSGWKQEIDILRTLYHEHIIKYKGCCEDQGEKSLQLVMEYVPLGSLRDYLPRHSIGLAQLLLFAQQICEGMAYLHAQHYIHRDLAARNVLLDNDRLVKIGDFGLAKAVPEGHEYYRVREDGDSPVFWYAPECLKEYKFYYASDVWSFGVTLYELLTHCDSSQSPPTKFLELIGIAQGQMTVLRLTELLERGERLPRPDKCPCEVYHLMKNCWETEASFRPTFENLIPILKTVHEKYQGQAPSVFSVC
Tyk2 kinase domain (DH1), sequence (P29597 897-1176): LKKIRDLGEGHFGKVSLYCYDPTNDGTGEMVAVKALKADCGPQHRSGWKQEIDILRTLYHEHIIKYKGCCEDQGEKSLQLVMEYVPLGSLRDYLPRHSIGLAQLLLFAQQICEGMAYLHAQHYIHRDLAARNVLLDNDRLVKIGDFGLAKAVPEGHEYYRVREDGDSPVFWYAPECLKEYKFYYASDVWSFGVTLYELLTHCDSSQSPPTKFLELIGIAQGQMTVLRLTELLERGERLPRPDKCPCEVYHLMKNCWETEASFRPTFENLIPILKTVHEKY
human TYK2 (JH2domain-pseudokinase), sequence (P29597 556-888): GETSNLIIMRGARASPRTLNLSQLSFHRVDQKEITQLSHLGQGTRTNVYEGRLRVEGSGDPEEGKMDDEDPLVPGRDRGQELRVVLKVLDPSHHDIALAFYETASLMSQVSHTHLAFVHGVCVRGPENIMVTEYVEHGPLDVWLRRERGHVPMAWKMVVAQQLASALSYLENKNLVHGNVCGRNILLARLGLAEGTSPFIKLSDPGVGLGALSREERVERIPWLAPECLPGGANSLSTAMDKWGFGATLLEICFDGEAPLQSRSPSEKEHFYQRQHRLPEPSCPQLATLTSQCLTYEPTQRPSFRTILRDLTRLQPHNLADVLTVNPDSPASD

| SMILES | Kd [1] [µM] | inhibition at 10 µM (Tyk2 kinase domain (DH1)) [%] | inhibition at 10 µM (JAK2 kinase domain (JH1)) [%] | IC50 [2] [µM] | IC50 [3] [µM] |
| --- | --- | --- | --- | --- | --- |
| CNc1cc(Nc2cc(F)cnc2OC2CC2)nc2c(C(=O)N[C@H]3C[C@H]3F)cnn12 [I-275] | < 0.0002 | < 50 | < 50 | < 0.1 | > 50 |
| CNc1cc(Nc2cc(F)cnc2OC2CC2)nc2c(C(=O)NC3CCC3)cnn12 [I-276] | < 0.0002 | < 50 | < 50 | < 0.1 | > 50 |
| CNc1cc(Nc2cc(C)cnc2OC2CC2)nc2c(C(=O)NC3CC3)cnn12 [I-277] | 0.0002 to 0.001 | < 50 | < 50 | 0.1 to 0.5 | > 50 |
| CNc1cc(Nc2cc(C)cnc2OCCOC)nc2c(C(=O)NC3CC3)cnn12 [I-281] | 0.0002 to 0.001 | < 50 | < 50 | 0.1 to 0.5 | > 2.5 |
| CNc1cc(Nc2cc(C)cnc2OCCOC)nc2c(C(=O)NC3CCC3)cnn12 [I-282] | 0.0002 to 0.001 | < 50 | < 50 | 0.1 to 0.5 | > 2.5 |
| CNc1cc(Nc2cc(F)cnc2OC)nc2c(C(=O)NCC(C)(C)CO)cnn12 [I-283] | < 0.0002 | < 50 | < 50 | < 0.1 | > 50 |
| [2H]C([2H])([2H])Oc1ncc(F)cc1Nc1cc(NC)n2ncc(C(=O)NC3CC3)c2n1 [I-284] | < 0.0002 | < 50 | < 50 | < 0.1 | > 12.5 |
| CNc1cc(Nc2cc(F)cnc2OCCOC)nc2c(C(=O)N[C@H]3C[C@H]3F)cnn12 [I-285] | < 0.0002 | < 50 | < 50 | < 0.1 | > 50 |
| [2H]C([2H])([2H])Oc1ncc(F)cc1Nc1cc(NC)n2ncc(C(=O)NC3CCC3)c2n1 [I-288] | < 0.0002 | < 50 | < 50 | < 0.1 | > 2.5 |
| CNc1cc(Nc2cc(F)cnc2OCCOC)nc2c(C(=O)NC3CCC3)cnn12 [I-290] | 0.0002 to 0.001 | < 50 | < 50 | < 0.1 | > 2.5 |
| CNc1cc(Nc2cccn(-c3nc(C)c(C)s3)c2=O)nc2c(C(=O)N[C@H]3C[C@H]3F)cnn12 [I-292] | 0.0002 to 0.001 | < 50 | < 50 | < 0.1 | > 2.5 |
| CNc1cc(Nc2cccn(-c3ccn(C)n3)c2=O)nc2c(C(=O)NC3CC3)cnn12 [I-294] | 0.0002 to 0.001 | < 50 | < 50 | < 0.1 | > 12.5 |
| CNc1cc(Nc2cccn(-c3cnn(C)c3)c2=O)nc2c(C(=O)NC3CC3)cnn12 [I-295] | < 0.0002 | < 50 | < 50 | < 0.1 | > 50 |
| CNc1cc(Nc2cccn(-c3cnn(C)c3)c2=O)nc2c(C(=O)N[C@H]3C[C@H]3F)cnn12 [I-296] | < 0.0002 | < 50 | < 50 | < 0.1 | > 50 |
| CNc1cc(Nc2cccn(-c3cncc(C)c3)c2=O)nc2c(C(=O)NC3CCC3)cnn12 [I-303] | < 0.0002 | < 50 | < 50 | < 0.1 | > 50 |
| CNc1cc(Nc2cccn(C3CCCCC3)c2=O)nc2c(C(=O)N[C@H]3C[C@H]3F)cnn12 [I-305] | < 0.0002 | < 50 | < 50 | < 0.1 | > 12.5 |
| CNc1cc(Nc2cc(Cl)cn(-c3ccn(C)n3)c2=O)nc2c(C(=O)N[C@H]3C[C@H]3F)cnn12 [I-309] | < 0.0002 | < 50 | < 50 | < 0.1 | > 12.5 |
| CNc1cc(Nc2cc(Cl)cn(-c3ccn(C)n3)c2=O)nc2c(C(=O)NC3CC3)cnn12 [I-310] | < 0.0002 | < 50 | < 50 | < 0.1 | > 2.5 |
| CNc1cc(Nc2cc(Cl)cn(-c3cnn(C)c3)c2=O)nc2c(C(=O)NC3CC3)cnn12 [I-311] | < 0.0002 | < 50 | < 50 | < 0.1 | > 12.5 |
| CNc1cc(Nc2cc(Cl)cn(-c3cnn(C)c3)c2=O)nc2c(C(=O)N[C@H]3C[C@H]3F)cnn12 [I-312] | < 0.0002 | < 50 | < 50 | < 0.1 | > 12.5 |
| CNc1cc(Nc2cc(Cl)cn(-c3cc(C)n(C)n3)c2=O)nc2c(C(=O)NC3CC3)cnn12 [I-314] | < 0.0002 | < 50 | < 50 | < 0.1 | > 2.5 |
| CNc1cc(Nc2cc(Cl)cn(-c3cc(C)n(C)n3)c2=O)nc2c(C(=O)N[C@H]3C[C@H]3F)cnn12 [I-315] | < 0.0002 | < 50 | < 50 | < 0.1 | > 12.5 |
| CNc1cc(Nc2cc(Cl)cn(-c3ccnc(C)n3)c2=O)nc2c(C(=O)N[C@H]3C[C@H]3F)cnn12 [I-317] | < 0.0002 | < 50 | < 50 | < 0.1 | > 2.5 |

Results, then the molecule that gave them:

| Kd [1] [µM] | inhibition at 10 µM (Tyk2 kinase domain (DH1)) [%] | inhibition at 10 µM (JAK2 kinase domain (JH1)) [%] | IC50 [2] [µM] | IC50 [3] [µM] | SMILES |
| --- | --- | --- | --- | --- | --- |
| < 0.0002 | < 50 | < 50 | < 0.1 | > 2.5 | CNc1cc(Nc2cc(Cl)cn(-c3cnc(C(=O)N(C)C)cn3)c2=O)nc2c(C(=O)NC3CC3)cnn12 [I-318] |
| < 0.0002 | < 50 | < 50 | < 0.1 | > 2.5 | CNc1cc(Nc2cc(Cl)cn(-c3cnc(C(=O)N(C)C)cn3)c2=O)nc2c(C(=O)N[C@H]3C[C@H]3F)cnn12 [I-319] |
| < 0.0002 | < 50 | < 50 | < 0.1 | > 2.5 | [2H]C([2H])([2H])Oc1ncccc1Nc1cc(NC)n2ncc(C(=O)N[C@H]3C[C@H](O)C3)c2n1 [I-321, N-((1r, 3r)-3-hydroxycyclobutyl)-5-((2-(methoxy-d3)pyridin-3-yl)amino)-7-(methylamino)pyrazolo[1,5-a]pyrimidine-3-carboxamide] |
| < 0.0002 | < 50 | < 50 | < 0.1 | > 2.5 | CNc1cc(Nc2cc(Cl)cn(-c3ncc(C)s3)c2=O)nc2c(C(=O)N[C@H]3C[C@H]3F)cnn12 [I-323] |
| < 0.0002 | < 50 | < 50 | < 0.1 | > 50 | CNc1cc(Nc2cc(Cl)cn(-c3cnn(C4CC4)c3C)c2=O)nc2c(C(=O)N[C@H]3C[C@H]3F)cnn12 [I-326] |
| < 0.0002 | < 50 | < 50 | < 0.1 | > 2.5 | CNc1cc(Nc2cccn(C3CCOCC3)c2=O)nc2c(C(=O)NC3CC3)cnn12 [I-329] |
| < 0.0002 | < 50 | < 50 | < 0.1 | > 2.5 | CNc1cc(Nc2cccn(C3CCOCC3)c2=O)nc2c(C(=O)N[C@H]3C[C@H]3F)cnn12 [I-330] |
| < 0.0002 | < 50 | < 50 | < 0.1 | > 12.5 | CNc1cc(Nc2cc(Cl)cn(-c3ccn(C4CC4)n3)c2=O)nc2c(C(=O)NC3CC3)cnn12 [I-331] |
| < 0.0002 | < 50 | < 50 | < 0.1 | > 2.5 | CNc1cc(Nc2cc(Cl)cn(-c3ccn(C4CC4)n3)c2=O)nc2c(C(=O)N[C@H]3C[C@H]3F)cnn12 [I-332] |
| < 0.0002 | < 50 | < 50 | < 0.1 | > 12.5 | CNc1cc(Nc2cc(Cl)cn(-c3ccc(C4CC4)nn3)c2=O)nc2c(C(=O)NC3CC3)cnn12 [I-333] |
| < 0.0002 | < 50 | < 50 | < 0.1 | > 50 | CNc1cc(Nc2cc(Cl)cn(-c3ccc(C4CC4)nn3)c2=O)nc2c(C(=O)N[C@H]3C[C@H]3F)cnn12 [I-334] |
| 0.0002 to 0.001 | < 50 | < 50 | < 0.1 | > 12.5 | CNc1cc(Nc2cccn(-c3cc(C)nn3C)c2=O)nc2c(C(=O)NC3CCC3)cnn12 [I-342] |
| < 0.0002 | < 50 | < 50 | < 0.1 | > 12.5 | CNc1cc(Nc2cccn([C@H]3CC[C@H](OC)CC3)c2=O)nc2c(C(=O)NC3CC3)cnn12 [I-343] |
| < 0.0002 | < 50 | < 50 | < 0.1 | > 12.5 | CNc1cc(Nc2cccn([C@H]3CC[C@H](OC)CC3)c2=O)nc2c(C(=O)N[C@H]3C[C@H]3F)cnn12 [I-344] |
